Literature values as cited in US20240269238A1, “Therapeutic Regimens and Methods for Reducing Body Weight in a Subject with Fatty Liver Disease using a GLP-1R and GCGR Agonist” (Spitfire Pharma LLC, priority 2022, published 2024).

How the values were obtained:
liver fat content = conditions: 6 weeks; cited from earlier work
[1] = over 26 weeks of administration; cited from earlier work

CCCCCCCCCCCCCCCC(=O)N[C@@H](CCC(=O)NCCCC[C@H](NC(=O)[C@H](CC(=O)O)NC(=O)[C@H](CO)NC(=O)[C@@H](NC(=O)[C@H](Cc1ccccc1)NC(=O)[C@@H](NC(=O)CNC(=O)[C@H](CCC(N)=O)NC(=O)[C@H](CO)NC(=O)[C@@H](N)Cc1c[nH]cn1)[C@@H](C)O)[C@@H](C)O)C(=O)N[C@@H](CO)C(=O)N[C@@H](CCC(=O)O)C(=O)N[C@@H](Cc1ccc(O)cc1)C(=O)N[C@@H](CC(C)C)C(=O)N[C@@H](CC(=O)O)C(=O)N[C@@H](CO)C(=O)N[C@@H](CCC(=O)O)C(=O)N[C@@H](CCCNC(=N)N)C(=O)N[C@@H](C)C(=O)N[C@@H](CCCNC(=N)N)C(=O)N[C@@H](CC(=O)O)C(=O)N[C@@H](Cc1ccccc1)C(=O)N[C@H](C(=O)N[C@@H](C)C(=O)N[C@@H](Cc1c[nH]c2ccccc12)C(=O)N[C@@H](CC(C)C)C(=O)N[C@@H](CCC(=O)O)C(=O)N[C@@H](C)C(=O)NCC(=O)NCC(=O)O)C(C)C)C(=O)O [cotadutide]
reduction in liver fat content (liver fat content): 39%
weight loss [1]: 5.4%
